In paper PMC9823097, “Dysregulation of PRMT5 in chronic lymphocytic leukemia promotes progression with high risk of Richter’s transformation” (Nature Communications, 2023):
Where “and” joins values, the source holds several entries; their conditions need not be identical. Equal values may be shown once. Entries after “also recorded” stand apart in the source; their conditions may differ.

How the values were obtained:
Mec-1 cells = assay: Cell growth curves over 12 days, Mec-1; type: cell-based
Protocol: Live cells/mL were counted on days 3, 6, 10, and 12. […] The split factor was calculated at indicated time points by dividing the counted cells/mL by 3E5. Cell growth was extrapolated over time by multiplying the subsequent cell count by the previous split factor. Cell growth is plotted as fold change relative to DMSO-treated cells.

HG3 CLL cell line = assay: Global symmetric dimethyl arginine (SDMA) western blot, HG3; type: cell-based; conditions: HG3, EPZ015666 for 72hr
Source text: Proteins extracted from whole-cell lysates were resolved by SDS-PAGE and transferred on nitrocellulose membrane as previously described. CpG685 oligonucleotide was obtained from the OSU Cytogenetics Core Lab. Antibodies used for immunoblots included anti-human PRMT5 (Abcam #ab109451), GAPDH (Millipore Sigma #MAB374), SDMA (Cell Signaling Technology #13222), c-Myc (Cell Signaling Technology #5605S), and β-Actin (Cell Signaling Technology #4967S). Cas9-mediated doxycycline-inducible knockout of PRMT5 utilized a targeted sgRNA (guide sequence: […], PAM: GGG).

[1] = test system: Eµ-PRMT5/TCL1 Cd19+Cd5+ spleen cells engrafted into immunocompetent C57/BL6J mice; assay: Adoptive transfer of Eµ-PRMT5/TCL1 spleen cells into C57/BL6J mice, treatment study; type: in vivo
Protocol: For adoptive transfer, viable Cd19^+Cd5^+ cells (5 × 10^6) from the spleen of an Eµ-PRMT5/TCL1 transgenic mouse with active CLL-like leukemia (>80% circulating in peripheral blood) and palpable splenomegaly were engrafted by tail vein into immunocompetent C57/BL6J female mice. Engrafted mice were randomly assigned to treatment conditions: PRT382 10 mg/kg, EPZ015666 50 mg/kg, or vehicle (0.5% methylcellulose, 0.1% tween) at 1-week post engraftment. All treatments were administered by oral gavage 4 contiguous days per week (Mon-Thurs). Predefined euthanasia criteria for mice in all transgenic colonies and murine transplant models were followed and included lethargy, impaired motility, splenomegaly, enlarged lymph nodes and/or superficial lymphoid tumors greater than 1.6 cm in diameter (or cumulative diameter of 1.6 cm if multiple tumors), decrease in body weight (>20%), ruffled fur, hunched back, failure to nest, and loss of appetite.

## O=C(NC[C@H](O)CN1CCc2ccccc2C1)c1cc(NC2COC2)ncn1 [EPZ015666]
Mec-1 cells; Mec-1, 1 nM, day 0
  Rep 1 Live Cells [Fold Change]: 1 Fold Change
  Rep 2 Live Cells [Fold Change]: 1 Fold Change
Mec-1 cells; Mec-1, 1 nM, day 3
  Rep 1 Live Cells [Fold Change]: 8.617 Fold Change
  Rep 2 Live Cells [Fold Change]: 9.35 Fold Change
Mec-1 cells; Mec-1, 1 nM, day 6
  Rep 1 Live Cells [Fold Change]: 72.0928 Fold Change
  Rep 2 Live Cells [Fold Change]: 74.5 Fold Change
Mec-1 cells; Mec-1, 1 nM, day 10
  Rep 1 Live Cells [Fold Change]: 633.719 Fold Change
  Rep 2 Live Cells [Fold Change]: 819 Fold Change
Mec-1 cells; Mec-1, 1 nM, day 12
  Rep 1 Live Cells [Fold Change]: 3882.24 Fold Change
  Rep 2 Live Cells [Fold Change]: 4970 Fold Change
Mec-1 cells; Mec-1, 10 nM, day 0
  Rep 1 Live Cells [Fold Change]: 1 Fold Change
  Rep 2 Live Cells [Fold Change]: 1 Fold Change
Mec-1 cells; Mec-1, 10 nM, day 3
  Rep 1 Live Cells [Fold Change]: 7.233 Fold Change
  Rep 2 Live Cells [Fold Change]: 10.3 Fold Change
Mec-1 cells; Mec-1, 10 nM, day 6
  Rep 1 Live Cells [Fold Change]: 40.9889 Fold Change
  Rep 2 Live Cells [Fold Change]: 85.8 Fold Change
Mec-1 cells; Mec-1, 10 nM, day 10
  Rep 1 Live Cells [Fold Change]: 534.674 Fold Change
  Rep 2 Live Cells [Fold Change]: 1290 Fold Change
Mec-1 cells; Mec-1, 10 nM, day 12
  Rep 1 Live Cells [Fold Change]: 1546.22 Fold Change
  Rep 2 Live Cells [Fold Change]: 3960 Fold Change
Mec-1 cells; Mec-1, 100 nM, day 0
  Rep 1 Live Cells [Fold Change]: 1 Fold Change
  Rep 2 Live Cells [Fold Change]: 1 Fold Change
  Rep 3 Live Cells [Fold Change]: 1 Fold Change
  Rep 4 Live Cells [Fold Change]: 1 Fold Change
Mec-1 cells; Mec-1, 100 nM, day 3
  Rep 1 Live Cells [Fold Change]: 10.3 Fold Change
  Rep 2 Live Cells [Fold Change]: 8.66 Fold Change
  Rep 3 Live Cells [Fold Change]: 6.583 Fold Change
  Rep 4 Live Cells [Fold Change]: 8.22 Fold Change
Mec-1 cells; Mec-1, 100 nM, day 6
  Rep 1 Live Cells [Fold Change]: 88.992 Fold Change
  Rep 2 Live Cells [Fold Change]: 55.1353 Fold Change
  Rep 3 Live Cells [Fold Change]: 56.8361 Fold Change
  Rep 4 Live Cells [Fold Change]: 60.1 Fold Change
Mec-1 cells; Mec-1, 100 nM, day 10
  Rep 2 Live Cells [Fold Change]: 518.272 Fold Change
  Rep 3 Live Cells [Fold Change]: 601.592 Fold Change
  Rep 4 Live Cells [Fold Change]: 484 Fold Change
Mec-1 cells; Mec-1, 100 nM, day 12
  Rep 1 Live Cells [Fold Change]: 615.119 Fold Change
  Rep 2 Live Cells [Fold Change]: 1560 Fold Change
  Rep 3 Live Cells [Fold Change]: 1676.06 Fold Change
  Rep 4 Live Cells [Fold Change]: 3230 Fold Change
Mec-1 cells; Mec-1, 1 µM, day 0
  Rep 1 Live Cells [Fold Change]: 1 Fold Change
  Rep 2 Live Cells [Fold Change]: 1 Fold Change
  Rep 3 Live Cells [Fold Change]: 1 Fold Change
  Rep 4 Live Cells [Fold Change]: 1 Fold Change
Mec-1 cells; Mec-1, 1 µM, day 3
  Rep 1 Live Cells [Fold Change]: 7.867 Fold Change
  Rep 2 Live Cells [Fold Change]: 5.46 Fold Change
  Rep 3 Live Cells [Fold Change]: 6.18 Fold Change
  Rep 4 Live Cells [Fold Change]: 8.87 Fold Change
Mec-1 cells; Mec-1, 1 µM, day 6
  Rep 1 Live Cells [Fold Change]: 54.0178 Fold Change
  Rep 2 Live Cells [Fold Change]: 38.4384 Fold Change
  Rep 3 Live Cells [Fold Change]: 49.852 Fold Change
  Rep 4 Live Cells [Fold Change]: 61.2 Fold Change
Mec-1 cells; Mec-1, 1 µM, day 10
  Rep 1 Live Cells [Fold Change]: 514.04 Fold Change
  Rep 2 Live Cells [Fold Change]: 244.725 Fold Change
  Rep 3 Live Cells [Fold Change]: 462.377 Fold Change
  Rep 4 Live Cells [Fold Change]: 387 Fold Change
Mec-1 cells; Mec-1, 1 µM, day 12
  Rep 1 Live Cells [Fold Change]: 1825.77 Fold Change
  Rep 2 Live Cells [Fold Change]: 748.774 Fold Change
  Rep 3 Live Cells [Fold Change]: 1841.8 Fold Change
  Rep 4 Live Cells [Fold Change]: 1610 Fold Change
Mec-1 cells; Mec-1, continuous exposure over 12 days
  effect on growth potential (cell growth): No changes in growth potential
HG3 CLL cell line
  global symmetric dimethyl arginine residues (immunoblot): dose dependent global loss; also recorded: only a modest decrease
[1]; Figure 7F, per mouse, week 1, in % (unit assumed)
  Week 1 CD19+/B220dim: 11.48 and 18.62 and 27.54 and 11.19 and 10.12 and 10.58 and 15.76 and 16.07 and 10.74
[1]; Figure 7F, per mouse, week 2, in % (unit assumed)
  Week 2 CD19+/B220dim: 15.67 and 34.32 and 54.88 and 26.83 and 24.62 and 12.62 and 27.46 and 30.9 and 21.08
[1]; Figure 7F, per mouse, week 3, in % (unit assumed)
  Week 3 CD19+/B220dim: 36.29 and 68.26 and 63.64 and 49.66 and 47.13 and 26.83 and 51.14 and 52.04 and 25.17
[1]; Figure 7F, per mouse, week 4, in % (unit assumed)
  Week 4 CD19+/B220dim: 56.34 and 75.81 and 60.54 and 71.56 and 63.33 and 48.69 and 69.46 and 71.25 and 53.76
[1]; Figure 7F, per mouse, week 5
  Week 5 CD19+/B220dim: 50.26 and 79.76 and 83.28 and 82.04 and 59.53 and 59.67 and 70.88 and 81.41 and 79.52
[1]; Figure 7F, per mouse, week 6, in % (unit assumed)
  Week 6 CD19+/B220dim: 79.53 and 74.33 and 84.12 and 75.35 and 79.18 and 56.6 and 82.56 and 74.54 and 89.39
[1]; Figure 7F, per mouse, week 7, in % (unit assumed)
  Week 7 CD19+/B220dim: 80.7 and 87.13 and 89.6 and 89.4 and 86.59 and 66 and 85.98 and 83.54 and 93.2
[1]; Figure 7F, per mouse, week 8
  Week 8 CD19+/B220dim: 84.94 and 92.1 and 90.67 and 85.36 and 88.33 and 44.29 and 85.8 and 89.46
[1]; Figure 7F, per mouse, week 9
  Week 9 CD19+/B220dim: 85.98 and 79.2 and 88.88
[1]; Figure 7F, per mouse, week 10, in % (unit assumed)
  Week 10 CD19+/B220dim: 88.79
[1]; Figure 7G, survival endpoint indicator, per mouse
  Endpoint: 1
[1]; Figure 7G, survival, per mouse
  Days since enrollment: 64 days and 50 days and 52 days and 51 days and 58 days and 45 days
[1]; Figure 7H, per mouse
  Spleen weight: 1.7 g and 2.27 g and 2.35 g and 2.58 g and 2.18 g and 1.84 g and 2.11 g and 1.38 g
[1]; PRT382 10 mg/kg, EPZ015666 50 mg/kg, oral gavage 4 contiguous days per week
  Median survival post-enrollment: 51 days
[1]; individual mice, Supplemental Figure 6F
  Spleen volume: 1489.45 mm3 and 4749.69 mm3 and 2852.93 mm3 and 3279.99 mm3 and 2090.66 mm3 and 1726.14 mm3 and 2169.7 mm3 and 1234.53 mm3
